# US12404332B2, “Methods for diagnosing and treating cancers” (Research Development Foundation, priority 2020, dated 2025)
# Key:
# ID8agg and B16 cells = assay: Chlorambucil in vitro cell growth, viability, apoptosis and calreticulin; assay type: cell-based, mouse
# Protocol: FIGS. 34A-D: FIG. 34A, Cells cultured in vitro with chlorambucil at indicated concentrations and counts determined on Vi-Cell. p-value, unpaired t-test. VC, vehicle control. FIG. 34B, Annexin V-FITC/PI (AV/PI) dual staining assay. Upper left, necrotic cells). Lower left, live cells. Lower right, early apoptotic cells and upper right, late apoptotic cells. ID8agg (CAMB 5 μM) and B16 (CAMB 10 μM) cells were treated for 48 hours. FIG. 34C, CAMB-treated ID8agg and B16 cells stained with an isotype control or an anti-calreticulin (CRT) antibody followed by immunofluorescence cytometry. FIG. 34D, Tumor cells were treated with the indicated concentrations with CAMB 48 h. Cell viability was detected by CCK-8 assay and relative cell viability ratio were compared between WT cells and PD-L1KO or PD-Lllo cells at different concentration point.
# Cell proliferation and viability assays: Cells (0.5-1×10^3) were plated in 96-well plastic culture plates in 100 μL medium and treated with CAMB. Cell viability was determined by a cell counting kit-8 (CCK-8) (Sigma). Absorbance was measured at 450 nm using a BioTek Synergy 2 Multi-Mode Plate Reader. Proliferation was assessed in triplicate in three separate experiments for in vitro all data shown.
# Flow cytometry: Mice were sacrificed by cervical dislocation after induction of deep isoflurane anesthesia. ID8agg tumors were collected and cells were stained as described (Derup et al., 2020) using LSR II hardware and analyzed by FACS Diva (BD Bioscience) or Flow Jo software (Flow Jo, LLC). Anti-mouse (clone 10F.9G2) and human (clone 29E.2A3) PD-L1 [both PE/Cy7, Cat #124314 (mouse) 329718 (human)] were matched with isotype control. Apoptosis assessment used Annexin V and propidium iodide (Thermo Scientific) per manufacturer instruction.
# ID8agg tumors = assay type: in vivo, mouse
# Excerpt: Mice and in vivo treatments: Wild-type (WT) C57BL/6 mice NSG were purchased from Jackson Labs (Bar Harbor, ME), bred in our animal facility and used at 7-20 weeks old. All mice were given ad libitum water and food and housed under specific pathogen-free conditions. Mice used here were matched for sex and age in each experiment. 1×10^5 control or PD-L1^KOB16 cells were given subcutaneously (SQ, both sexes). 4×10^6 control or PD-L1^lo ID8agg cells in log growth phase were given intraperitoneally (females only). B16 tumor growth was measured with Vernier calipers and volume was calculated as (length×width^2)/2. Intraperitoneal ID8agg tumor growth was determined by IVIS Lumina Imaging System (Perkin Elmer; Waltham, MA) 15 minutes after i.p. injection of 3 mg of PBS-dissolved d-luciferin K+ (Gold Biotechnology; St. Louis, MO) with 30 second exposures, medium binning, and F/stop=1. Identical regions of interest were drawn over each subject's abdomen and average radiance (photons/see/cm2/sr) was quantified with Living Image software version 4.2. Body weight was measured every week for PD-L1^lo ID8agg mice as a surrogate for tumor growth, and tumors were weighed at end-experiment in confirmation. Survival was determined as >1500 mm^3 for SQ tumors and distress or >20% mouse weight gain for PD-L1^lo ID8agg tumors. Intraperitoneal injection of chlorambucil was given at indicated doses (optimized for each tumor and treatment condition in preliminary assessments not shown) for 3 treatment cycles starting 7 days after tumor cell challenge. Each chlorambucil cycle was 5 consecutive days of a single injection followed by two days of rest. αPD-L1 (clone 10F.9G2) or respective isotype control was injected intraperitoneally at 100 μg/mouse every 5 days starting on day 7 after tumor challenge for times indicated.
smiles,measurement,setting,value
O=C(O)CCCc1ccc(N(CCCl)CCCl)cc1 [chlorambucil],cell growth in vitro,ID8agg and B16 cells,inhibited cell growth in vitro with little or no killing
same,cell surface calreticulin,ID8agg and B16 cells,significantly increased
same,immunogenic cell death (ICD),ID8agg and B16 cells,induced ICD independent of tumor PD-L1 status
same,sensitivity of CTRL cells compared with PD-L1^lo or PD-L1^KO cells,ID8agg and B16 cells,more sensitive
same,apoptosis,ID8agg and B16 cells; ID8agg or B16 cells,did not induce apoptosis
same,sensitization of ID8agg to αPD-L1,ID8agg tumors; CAMB dose ineffective as a single agent,sensitized ID8agg to αPD-L1
same,tumor PD-L1 in vivo,"ID8agg tumors; ID8agg challenge, ascites",reduced tumor PD-L1 in ascites
same,PD-L1^lo ID8agg growth,"ID8agg tumors; WT mice, dose and schedule as for ID8agg",unable to suppress
same,single agent efficacy at the dose used for the combination,"ID8agg tumors; mouse, in vivo",ineffective as a single agent
same,treatment of tumors,"ID8agg tumors; severely immunodeficient NSG mice, ID8agg",effectively treated both
same,mouse survival,"ID8agg tumors; wild type mice, ID8agg",prolonged mouse survival
same,tumor volume,"ID8agg tumors; wild type mice, ID8agg",significantly reduced tumor volume
